Among the test systems are CCRF-CEM leukemia; EKVX NSCLC; HL-60(TB) leukemia; HOP-92 NSCLC; IGROV1 ovarian; K-562 leukemia; KM12 colon; MALME-3M melanoma; MCF7 breast; NCI-H460 lung; NCI-H522 lung; NCI/ADR-RES ovarian; OVCAR-3 ovarian; OVCAR-4 ovarian; OVCAR-8 ovarian; SF-268 CNS; SF-295 CNS; SW-620 colon; T-47D breast; RPMI-8226 leukemia.
What all share (assay): NCI tumour cell line growth inhibition, 48 h

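Briefly, cells in 96-well plates were exposed to five compound concentrations for 48 h, and endpoints were estimated by linear interpolation. TGI denotes the concentration required for complete inhibition of growth.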

`Cc1cc(C2CC(O)C(CO)O2)c(F)cc1F` (stereo unspecified): the TGI with CCRF-CEM leukemia, in the experiment on EKVX NSCLC, in the experiment with HL-60(TB) leukemia, in the experiment on HOP-92 NSCLC, in the experiment on IGROV1 ovarian and in the experiment on K-562 leukemia was above 100 µM in each case. In addition, the TGI in the experiment with KM12 colon, with MALME-3M melanoma, in the experiment with MCF7 breast, in the experiment with NCI-H460 lung, in the experiment on NCI-H522 lung and in the experiment with NCI/ADR-RES ovarian was above 100 µM in each case. In addition, the TGI in the experiment with OVCAR-3 ovarian, in the experiment with OVCAR-4 ovarian, in the experiment with OVCAR-8 ovarian, with SF-268 CNS, in the experiment on SF-295 CNS and in the experiment with SW-620 colon was above 100 µM throughout. Moreover, in the experiment with T-47D breast, the TGI is above 100 µM.

Regarding `CCCCCCOc1ccc(Nc2c(O)c3c(c(O)c2Cl)C(=O)C=CC3=O)cc1`, the TGI in the experiment on CCRF-CEM leukemia is 8.61 µM; in the experiment with EKVX NSCLC it was above 10 µM; in the experiment with HL-60(TB) leukemia, 3.74 µM; in the experiment with HOP-92 NSCLC it was 7.14 µM; in the experiment on K-562 leukemia it was 8.92 µM; in the experiment on KM12 colon it was above 7.66 µM. For the same compound, the TGI was 4.04 µM in the experiment on MALME-3M melanoma; above 4.88 µM with MCF7 breast; 6.52 µM in the experiment on NCI-H460 lung; 3.98 µM with NCI-H522 lung; 6.54 µM in the experiment with NCI/ADR-RES ovarian; 4.77 µM in the experiment on OVCAR-3 ovarian. In addition, the TGI in the experiment with OVCAR-4 ovarian is above 8.13 µM; with OVCAR-8 ovarian, above 5.31 µM; with RPMI-8226 leukemia, 5.11 µM; with SF-268 CNS it was above 10 µM; with SF-295 CNS it was above 10 µM; with SW-620 colon it was 4.73 µM. For the same compound, the TGI in the experiment with T-47D breast was above 10 µM.

As for `CCOP(=O)(COCCn1ncc(=O)[nH]c1=O)OCC`, the TGI in the experiment on CCRF-CEM leukemia, in the experiment with EKVX NSCLC, in the experiment on HL-60(TB) leukemia, with HOP-92 NSCLC, with IGROV1 ovarian and in the experiment on KM12 colon was above 100 µM each time. Further, the TGI in the experiment with MALME-3M melanoma, in the experiment on MCF7 breast, with NCI-H460 lung, in the experiment with NCI-H522 lung, in the experiment with NCI/ADR-RES ovarian and in the experiment with OVCAR-3 ovarian was above 100 µM each time. Moreover, the TGI with OVCAR-8 ovarian, in the experiment with RPMI-8226 leukemia, with SF-268 CNS, in the experiment on SW-620 colon and in the experiment with T-47D breast was above 100 µM in each case.

Turning to `Cn1c(=O)oc2cc(C(O)CN3CCN(Cc4ccccn4)CC3)c(Cl)cc21` (stereo unspecified), the TGI in the experiment with CCRF-CEM leukemia, in the experiment on EKVX NSCLC, with HL-60(TB) leukemia, with HOP-92 NSCLC, in the experiment on IGROV1 ovarian and in the experiment with K-562 leukemia was above 100 µM each time. For the same compound, the TGI with KM12 colon, in the experiment with MALME-3M melanoma, in the experiment with MCF7 breast, in the experiment on NCI-H460 lung, with NCI-H522 lung and in the experiment on NCI/ADR-RES ovarian was above 100 µM in each case. In addition, the TGI in the experiment with OVCAR-3 ovarian, with OVCAR-4 ovarian, in the experiment with OVCAR-8 ovarian, in the experiment with SF-268 CNS, in the experiment with SF-295 CNS and with SW-620 colon was above 100 µM in each case. In addition, the TGI in the experiment on T-47D breast was above 100 µM.

Turning to `O=S1(=O)Cc2ccc3c4c2-c2c(ccc5ccc(c-4c25)CS(=O)(=O)C3)C1`, the TGI with EKVX NSCLC, in the experiment on HL-60(TB) leukemia, in the experiment on HOP-92 NSCLC, in the experiment on IGROV1 ovarian, in the experiment on K-562 leukemia and in the experiment with KM12 colon was above 100 µM each time. Besides, the TGI with MALME-3M melanoma, with MCF7 breast, in the experiment with NCI-H460 lung, with NCI-H522 lung, in the experiment on NCI/ADR-RES ovarian and in the experiment with OVCAR-3 ovarian was above 100 µM each time. Further, the TGI with OVCAR-4 ovarian, in the experiment on OVCAR-8 ovarian, in the experiment with RPMI-8226 leukemia, in the experiment with SF-268 CNS, with SF-295 CNS and in the experiment on SW-620 colon was above 100 µM throughout. In the experiment on T-47D breast, this compound returned a TGI above 100 µM.

With `COc1ccc2c(c1)nc1n2C(c2c(Cl)cccc2Cl)SC1` (stereo unspecified), the TGI in the experiment with CCRF-CEM leukemia was above 100 µM; in the experiment with EKVX NSCLC, above 100 µM; in the experiment with HL-60(TB) leukemia, above 22.7 µM; with HOP-92 NSCLC it was above 100 µM; in the experiment with IGROV1 ovarian, above 100 µM; in the experiment on K-562 leukemia, above 100 µM. For the same compound, the TGI is above 100 µM in the experiment with KM12 colon; 14.5 µM with MALME-3M melanoma; above 37.5 µM in the experiment with MCF7 breast; above 100 µM in the experiment on NCI-H460 lung; above 52.5 µM in the experiment on NCI/ADR-RES ovarian; above 93 µM in the experiment on OVCAR-3 ovarian. Also, the TGI in the experiment on OVCAR-4 ovarian was above 100 µM; in the experiment on OVCAR-8 ovarian, above 100 µM; in the experiment on RPMI-8226 leukemia, above 100 µM; in the experiment with SF-268 CNS, above 100 µM; in the experiment with SF-295 CNS, above 70.4 µM; in the experiment on SW-620 colon, above 53.8 µM. In addition, the TGI in the experiment with T-47D breast is above 72.3 µM.

Turning to `COC(=O)c1ccccc1Nc1nc(-c2cccs2)nc2cc(OC)c(OC)cc12`, the TGI is above 100 µM with EKVX NSCLC; above 100 µM with HL-60(TB) leukemia; above 100 µM with HOP-92 NSCLC; 74.7 µM with IGROV1 ovarian; above 100 µM with K-562 leukemia; above 100 µM in the experiment on KM12 colon. Besides, the TGI is above 100 µM with MALME-3M melanoma; above 100 µM in the experiment on MCF7 breast; above 100 µM in the experiment with NCI-H460 lung; above 100 µM in the experiment on NCI-H522 lung; above 100 µM with NCI/ADR-RES ovarian; 72.2 µM with OVCAR-3 ovarian. For the same compound, the TGI was above 100 µM with OVCAR-4 ovarian; above 100 µM with OVCAR-8 ovarian; above 100 µM in the experiment with RPMI-8226 leukemia; above 100 µM in the experiment on SF-268 CNS; 97.7 µM in the experiment on SF-295 CNS; above 100 µM with SW-620 colon. Also, the TGI in the experiment on T-47D breast is above 100 µM.
